Where two headings read alike, the source gives them in different places. Each block holds one compound with its values, some of them ahead of it.
Tests used:
hsst5 [1] = biological target: T1, hsst5 (Homo sapiens, UniProt P35346); test: Competition binding, hsst5 membrane preparations (Millipore), [125I]SST-28 radioligand; parameters: purchased Millipore (Schwalbach, Germany), ChemiSCREEN membranes; host or cells: CHO cells stably transfected; settings: CHO cell membranes (Millipore), [Leu8,D-Trp22,[125I]Tyr25]-somatostatin 28 radioligand; IC50 ± SD; read-out: IC50 hsst 5
Protocol: (§1) Cell membrane preparations of cells expressing the human sst1–5 were obtained from Millipore (Schwalbach, Germany) and PerkinElmer (Rodgau, Germany). Competition binding studies were performed in close analogy to the manufacturer’s protocol. […] To each well, 10 μL of (Leu^8,D-Trp^22,[^125I]Tyr^25)-somatostatin-28 in binding buffer (approx. 100,000 cpm) were added. Then, 5 μg of cell membrane in 80 μL of binding buffer were added per well and incubated for 60 min at RT. The final radioligand concentration in the incubation mixture was 0.42 nM. Membranes were then aspired onto a glass fiber filtermat (Printed Filtermat B, Wallach, Turku, Finland), which had been preconditioned with 0.33% polyethylenimine for 30 min and then washed five times with 300 μL (per well) of wash buffer (50 mM HEPES, 500 mM NaCl, 0.1% BSA, buffered to pH 7.4 using 1 N NaOH), using a Mach II M Harvester 96 (Tomtec CE, Etten-Leur, The Netherlands). Membranes were washed ten times with 150 μL (per well) of wash buffer. The filtermat was then cut into squares containing the membrane from the respective wells, and membrane bound activity was counted in a γ-counter. IC50 values were calculated from bound activity [cpm] using PRISM 6 software (Graph Pad Software, San Diego, CA, USA).
(§2) Data were determined using membrane preparations of CHO cells stably transfected with the respective sst subtype.

hsst1 = biological target: T2, hsst1 (Homo sapiens, UniProt P30872); test: Competition binding, hsst1 membrane preparations (Millipore), [125I]SST-28 radioligand; settings: CHO cell membranes (Millipore), [Leu8,D-Trp22,[125I]Tyr25]-somatostatin 28 radioligand; IC50 ± SD; read-out: IC50 hsst 1
T2 construct: purchased Millipore (Schwalbach, Germany), ChemiSCREEN membranes; host or cells: CHO cells stably transfected
Protocol: as §1, §2

[2] = pH 7.4, log P O/PBS
hsst5 [3] = biological target: T1, hsst5; parameters: method as in PMID 10774879; settings: read-out: hsst5 affinity, autoradiography assay; cited from earlier work
hsst3 = biological target: T3, hsst3 (Homo sapiens, UniProt P32745); test: Competition binding, hsst3 membrane preparations (Millipore), [125I]SST-28 radioligand; settings: CHO cell membranes (Millipore), [Leu8,D-Trp22,[125I]Tyr25]-somatostatin 28 radioligand; IC50 ± SD; read-out: IC50 hsst 3
T3 construct: purchased Millipore (Schwalbach, Germany), ChemiSCREEN membranes; host or cells: CHO cells stably transfected
Protocol: as §1, §2

sst2 = test system: sst2; parameters: method as in PMID 10774879; settings: read-out: IC50 (sst2), receptor autoradiography; cited from earlier work
[4] = Biodistribution in AR42J tumor-bearing nude mice; settings: mouse, 60 min p.i.
[5] = mouse, in vivo, iv, Biodistribution Lung, Control
[6] = test system: AR42J tumor-bearing nude mice; test: Biodistribution in AR42J tumor-bearing nude mice; settings: 60 min p.i.

T1 sequence (P35346 whole entry): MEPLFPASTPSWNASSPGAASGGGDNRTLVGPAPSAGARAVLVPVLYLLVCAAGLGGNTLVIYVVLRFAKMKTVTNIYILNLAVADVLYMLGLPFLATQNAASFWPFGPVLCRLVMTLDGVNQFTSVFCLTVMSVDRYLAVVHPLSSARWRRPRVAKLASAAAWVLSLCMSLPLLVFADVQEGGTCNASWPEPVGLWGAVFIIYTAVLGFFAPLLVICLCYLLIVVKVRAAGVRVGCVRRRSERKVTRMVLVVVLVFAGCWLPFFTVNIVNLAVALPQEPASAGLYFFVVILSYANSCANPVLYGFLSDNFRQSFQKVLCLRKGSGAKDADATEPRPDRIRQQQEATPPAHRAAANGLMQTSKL
T3 sequence (P32745 whole entry): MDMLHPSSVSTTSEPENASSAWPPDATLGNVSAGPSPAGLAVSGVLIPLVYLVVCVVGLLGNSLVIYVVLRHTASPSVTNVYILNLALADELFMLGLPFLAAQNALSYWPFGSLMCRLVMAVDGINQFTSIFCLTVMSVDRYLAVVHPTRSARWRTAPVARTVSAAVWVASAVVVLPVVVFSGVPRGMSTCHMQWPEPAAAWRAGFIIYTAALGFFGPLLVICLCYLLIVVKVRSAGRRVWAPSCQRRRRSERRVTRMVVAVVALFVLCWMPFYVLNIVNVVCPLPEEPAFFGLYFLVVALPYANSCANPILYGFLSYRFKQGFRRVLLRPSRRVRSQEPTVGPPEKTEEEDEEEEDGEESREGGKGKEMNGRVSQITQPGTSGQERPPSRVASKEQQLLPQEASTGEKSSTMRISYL
T2 sequence (P30872 whole entry): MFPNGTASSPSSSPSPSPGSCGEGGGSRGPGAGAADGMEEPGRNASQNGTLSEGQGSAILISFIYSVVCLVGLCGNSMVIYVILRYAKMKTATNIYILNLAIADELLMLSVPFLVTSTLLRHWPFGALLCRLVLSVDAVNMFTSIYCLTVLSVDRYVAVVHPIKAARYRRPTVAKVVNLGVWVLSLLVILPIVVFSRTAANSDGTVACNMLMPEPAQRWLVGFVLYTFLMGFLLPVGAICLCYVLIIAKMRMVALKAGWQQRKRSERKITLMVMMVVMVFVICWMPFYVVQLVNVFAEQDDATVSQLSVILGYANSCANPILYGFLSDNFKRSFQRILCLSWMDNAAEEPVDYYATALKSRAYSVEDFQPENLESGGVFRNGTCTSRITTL

Compound: C[C@@H](O)[C@H](NC(=O)[C@@H]1CSSC[C@H](NC(=O)[C@@H](Cc2ccccc2)NC(=O)CN2CCN(CC(=O)O)CCN(CC(=O)O)CCN(CC(=O)O)CC2)C(=O)N[C@@H](Cc2ccc(O)cc2)C(=O)N[C@H](Cc2c[nH]c3ccccc23)C(=O)N[C@@H](CCCCN)C(=O)N[C@@H]([C@@H](C)O)C(=O)N1)C(=O)O [^natGa-DOTATATE, metal not drawn, reference compound]
IC50 (hsst5 [1]): > 1000 nM | IC50 (hsst1): > 1000 nM | logP [2]: -3.69 | IC50 (hsst5 [3]): 200 to 500 nM | IC50 (hsst3): > 1000 nM | IC50 (sst2): […]

Compound: C[C@@H](O)[C@H](NC(=O)[C@@H]1CSSC[C@H](NC(=O)[C@@H](Cc2ccccc2)NC(=O)CN2CCN(CC(=O)O)CCN(CC(=O)O)CCN(CC(=O)O)CC2)C(=O)N[C@@H](Cc2ccc(O)cc2)C(=O)N[C@H](Cc2c[nH]c3ccccc23)C(=O)N[C@@H](CCCCN)C(=O)N[C@@H]([C@@H](C)O)C(=O)N1)C(=O)O [[^68Ga]DOTATATE, [^68Ga]DOTA-Tyr^3-octreotate, metal not drawn]
tissue uptake at 1 h ([4]; in vivo, Biodistribution AR42J tumor, Competition, coinjection of 20 μg/mouse unlabeled TOC, n = 3): 2 ± 0.1 %ID/g | tissue uptake at 1 h ([4]; in vivo, Biodistribution Adrenals, Competition, coinjection of 20 μg/mouse unlabeled TOC, n = 3): 0.4 ± 0.1 %ID/g | tissue uptake at 1 h ([4]; in vivo, Biodistribution Blood, Competition, coinjection of 20 μg/mouse unlabeled TOC, n = 3): 0.4 ± 0.2 %ID/g | tissue uptake at 1 h ([4]; in vivo, Biodistribution Heart, Competition, coinjection of 20 μg/mouse unlabeled TOC, n = 3): 0.2 ± 0.1 %ID/g | tissue uptake at 1 h ([4]; in vivo, Biodistribution Intestine, Competition, coinjection of 20 μg/mouse unlabeled TOC, n = 3): 0.6 ± 0.2 %ID/g | tissue uptake at 1 h ([4]; in vivo, Biodistribution Liver, Competition, coinjection of 20 μg/mouse unlabeled TOC, n = 3): 0.2 ± 0.05 %ID/g | tissue uptake at 1 h ([4]; in vivo, Biodistribution Lung, Competition, coinjection of 20 μg/mouse unlabeled TOC, n = 3): 0.6 ± 0.2 %ID/g | tissue uptake at 1 h ([4]; in vivo, Biodistribution Muscle, Competition, coinjection of 20 μg/mouse unlabeled TOC, n = 3): 0.2 ± 0.1 %ID/g | tissue uptake at 1 h ([4]; in vivo, Biodistribution Spleen, Competition, coinjection of 20 μg/mouse unlabeled TOC, n = 3): 0.2 ± 0.03 %ID/g | tissue uptake at 1 h ([4]; in vivo, Biodistribution Stomach, Competition, coinjection of 20 μg/mouse unlabeled TOC, n = 3): 0.7 ± 0.1 %ID/g | tissue uptake at 1 h ([4]; in vivo, iv, Biodistribution AR42J tumor, Control, tracer only, n = 5): 24.1 ± 4.9 %ID/g | tissue uptake at 1 h ([4]; in vivo, iv, Biodistribution Adrenals, Control, tracer only, n = 5): 5.1 ± 1.4 %ID/g | tissue uptake at 1 h ([4]; in vivo, iv, Biodistribution Blood, Control, tracer only, n = 5): 0.3 ± 0.06 %ID/g | tissue uptake at 1 h ([4]; in vivo, iv, Biodistribution Heart, Control, tracer only, n = 5): 0.3 ± 0.04 %ID/g | tissue uptake at 1 h ([4]; in vivo, iv, Biodistribution Intestine, Control, tracer only, n = 5): 2.7 ± 0.8 %ID/g | tissue uptake at 1 h ([4]; in vivo, iv, Biodistribution Kidney, Control, tracer only, n = 5): 3.9 ± 0.5 %ID/g | tissue uptake at 1 h ([4]; in vivo, iv, Biodistribution Liver, Control, tracer only, n = 5): 0.5 ± 0.1 %ID/g | tissue uptake at 1 h ([4]; in vivo, iv, Biodistribution Muscle, Control, tracer only, n = 5): 0.3 ± 0.2 %ID/g | tissue uptake at 1 h ([4]; in vivo, iv, Biodistribution Pancreas, Control, tracer only, n = 5): 26.1 ± 4.9 %ID/g | tissue uptake at 1 h ([4]; in vivo, iv, Biodistribution Stomach, Control, tracer only, n = 5): 15.9 ± 3.9 %ID/g | tissue uptake at 1 h [5]: 8.4 ± 1.4 %ID/g

Compound: C[C@@H](O)[C@H](NC(=O)[C@@H]1CSSC[C@H](NC(=O)[C@@H](Cc2ccccc2)NC(=O)CN2CCN(CC(=O)O)CCN(CC(=O)O)CCN(CC(=O)O)CC2)C(=O)N[C@@H](Cc2ccc(O)c(I)c2)C(=O)N[C@H](Cc2c[nH]c3ccccc23)C(=O)N[C@@H](CCCCN)C(=O)N[C@@H]([C@@H](C)O)C(=O)N1)C(=O)O [[^68Ga]HA-DOTATATE, [^68Ga]DOTA-3-iodo-Tyr^3-octreotate, metal not drawn]
tissue uptake at 1 h ([4]; AR42J tumor, intravenous, Biodistribution AR42J tumor, Competition, coinjection of 20 μg/mouse unlabeled TOC, n = 3): 5.6 ± 0.7 %ID/g | tissue uptake at 1 h ([4]; AR42J tumor, iv, 25 pmol/mouse, Biodistribution AR42J tumor, Control, tracer only, n = 5): 33.6 ± 10.9 %ID/g | tissue uptake at 1 h ([4]; adrenals, intravenous, Biodistribution Adrenals, Competition, coinjection of 20 μg/mouse unlabeled TOC, n = 3): 1 ± 0.3 %ID/g | tissue uptake at 1 h ([4]; adrenals, iv, 25 pmol/mouse, Biodistribution Adrenals, Control, tracer only, n = 5): 10.8 ± 3.2 %ID/g | tissue uptake at 1 h ([4]; blood, intravenous, Biodistribution Blood, Competition, coinjection of 20 μg/mouse unlabeled TOC, n = 3): 2.5 ± 0.6 %ID/g | tissue uptake at 1 h ([4]; blood, iv, 25 pmol/mouse, Biodistribution Blood, Control, tracer only, n = 5): 0.7 ± 0.3 %ID/g | tissue uptake at 1 h ([4]; heart, intravenous, Biodistribution Heart, Competition, coinjection of 20 μg/mouse unlabeled TOC, n = 3): 1 ± 0.2 %ID/g | tissue uptake at 1 h ([4]; heart, iv, 25 pmol/mouse, Biodistribution Heart, Control, tracer only, n = 5): 0.5 ± 0.2 %ID/g | tissue uptake at 1 h ([4]; intestine, intravenous, Biodistribution Intestine, Competition, coinjection of 20 μg/mouse unlabeled TOC, n = 3): 0.8 ± 0.04 %ID/g | tissue uptake at 1 h ([4]; intestine, iv, 25 pmol/mouse, Biodistribution Intestine, Control, tracer only, n = 5): 4 ± 0.7 %ID/g | tissue uptake at 1 h ([4]; kidney, intravenous, Biodistribution Kidney, Competition, coinjection of 20 μg/mouse unlabeled TOC, n = 3): 17.1 ± 8.7 %ID/g | tissue uptake at 1 h ([4]; kidney, iv, 25 pmol/mouse, Biodistribution Kidney, Control, tracer only, n = 5): 5.3 ± 1 %ID/g | tissue uptake at 1 h ([4]; liver, intravenous, Biodistribution Liver, Competition, coinjection of 20 μg/mouse unlabeled TOC, n = 3): 1 ± 0.3 %ID/g | tissue uptake at 1 h ([4]; liver, iv, 25 pmol/mouse, Biodistribution Liver, Control, tracer only, n = 5): 1 ± 0.2 %ID/g | tissue uptake at 1 h ([4]; lung, intravenous, Biodistribution Lung, Competition, coinjection of 20 μg/mouse unlabeled TOC, n = 3): 2.5 ± 0.4 %ID/g | tissue uptake at 1 h ([4]; lung, iv, 25 pmol/mouse, Biodistribution Lung, Control, tracer only, n = 5): 13.2 ± 1 %ID/g | tissue uptake at 1 h ([4]; muscle, intravenous, Biodistribution Muscle, Competition, coinjection of 20 μg/mouse unlabeled TOC, n = 3): 0.6 ± 0.4 %ID/g | tissue uptake at 1 h ([4]; muscle, iv, 25 pmol/mouse, Biodistribution Muscle, Control, tracer only, n = 5): 0.2 ± 0.1 %ID/g | tissue uptake at 1 h ([4]; pancreas, intravenous, Biodistribution Pancreas, Competition, coinjection of 20 μg/mouse unlabeled TOC, n = 3): 1.5 ± 0.5 %ID/g | tissue uptake at 1 h ([4]; pancreas, iv, 25 pmol/mouse, Biodistribution Pancreas, Control, tracer only, n = 5): 36.6 ± 4.3 %ID/g | tissue uptake at 1 h ([4]; spleen, intravenous, Biodistribution Spleen, Competition, coinjection of 20 μg/mouse unlabeled TOC, n = 3): 0.7 ± 0.2 %ID/g | tissue uptake at 1 h ([4]; spleen, iv, 25 pmol/mouse, Biodistribution Spleen, Control, tracer only, n = 5): 1.9 ± 0.8 %ID/g | tissue uptake at 1 h ([4]; stomach, intravenous, Biodistribution Stomach, Competition, coinjection of 20 μg/mouse unlabeled TOC, n = 3): 1.9 ± 0.8 %ID/g | tissue uptake at 1 h ([4]; stomach, iv, 25 pmol/mouse, Biodistribution Stomach, Control, tracer only, n = 5): 21.7 ± 4.5 %ID/g

Other lines, results leading:

IC50 (hsst5 [1]): 102 ± 65 nM | IC50 (hsst1): > 1000 nM | IC50 (hsst3): > 1000 nM
Compound: C[C@@H](O)[C@H](NC(=O)[C@@H]1CSSC[C@H](NC(=O)[C@@H](Cc2ccccc2)NC(=O)CN2CCN(CC(=O)O)CCN(CC(=O)O)CCN(CC(=O)O)CC2)C(=O)N[C@@H](Cc2ccc(O)c(I)c2)C(=O)N[C@H](Cc2c[nH]c3ccccc23)C(=O)N[C@@H](CCCCN)C(=O)N[C@@H]([C@@H](C)O)C(=O)N1)C(=O)O [^natGa-HA-DOTATATE, metal not drawn]

Uptake in sst-expressing tissues (stomach, adrenals, pancreas, AR42J tumor), factor of increase compared to [^68Ga]DOTATATE [6]: 1.4 to 2
Compound: C[C@@H](O)[C@H](NC(=O)[C@@H]1CSSC[C@H](NC(=O)[C@@H](Cc2ccccc2)NC(=O)CN2CCN(CC(=O)O)CCN(CC(=O)O)CCN(CC(=O)O)CC2)C(=O)N[C@@H](Cc2ccc(O)c(I)c2)C(=O)N[C@H](Cc2c[nH]c3ccccc23)C(=O)N[C@@H](CCCCN)C(=O)N[C@@H]([C@@H](C)O)C(=O)N1)C(=O)O [[^68Ga]HA-DOTATATE] [[^68Ga]DOTA-3-iodo-Tyr^3-octreotate, metal not drawn]

Source: publication PMC4402678, “Twins in spirit - episode I: comparative preclinical evaluation of [^68Ga]DOTATATE and [^68Ga]HA-DOTATATE” (EJNMMI Research, 2015)
